In ChEMBL document CHEMBL1201862, “PubChem BioAssay data set” (2004):
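Values below derive from 48-hour exposures of cells grown in 96-well plates, with endpoints linearly interpolated between the two concentrations bracketing the appropriate inhibition level. GI50 = concentration required for 50% inhibition of growth.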 Calls of active or inactive are those of the source. Cut-off read from the data, not from the text of the source: active = GI50 up to about 1.1 µM and inactive = higher.

What was measured:
Test in all cases: DTP human tumour cell line panel, 48 h
NCI-H522 = tested on: NCI-H522
SK-MEL-5 = tested on: SK-MEL-5
HT-29 = tested on: HT-29
COLO 205 = tested on: COLO 205
NCI-H226 = tested on: NCI-H226
SW-620 = tested on: SW-620
HOP-62 = tested on: HOP-62
Malme-3M = tested on: Malme-3M
TK-10 = tested on: TK-10
RPMI-8226 = tested on: RPMI-8226
CAKI-1 = tested on: CAKI-1
HCT-15 = tested on: HCT-15
RXF 393 = tested on: RXF 393
HCT-116 = tested on: HCT-116
786-0 = tested on: 786-0
HCC 2998 = tested on: HCC 2998
OVCAR-8 = tested on: OVCAR-8
SNB-75 = tested on: SNB-75

SMILES | GI50 (NCI-H522) | GI50 (SK-MEL-5) | GI50 (HT-29) | GI50 (COLO 205) | GI50 (NCI-H226) | GI50 (SW-620) | GI50 (HOP-62) | GI50 (Malme-3M) | GI50 (TK-10) | GI50 (RPMI-8226) | GI50 (CAKI-1) | GI50 (HCT-15) [µM] | GI50 (RXF 393) | GI50 (HCT-116) | GI50 (786-0) | GI50 (HCC 2998) | GI50 (OVCAR-8) | GI50 (SNB-75)
N#CSC#Cc1ccc(C#CSC#N)cc1 | 11.1 µM (inactive) | 18.2 µM (inactive) | 20.1 µM (inactive) | 18.2 µM (inactive) | 21.6 µM (inactive) | 19.2 µM (inactive) | 23 µM (inactive) | 19.1 µM (inactive) | 16.6 µM (inactive) | > 100 µM (inactive) | 16.1 µM (inactive) | 19.4 | 18.7 µM (inactive) | 19 µM (inactive) | 17.2 µM (inactive) | 17.6 µM (inactive) | 19.6 µM (inactive) | –
O=c1o[nH]/c(=N/c2ccccc2)n1-c1ccccc1 | – | > 100 µM (inactive) | > 100 µM (inactive) | > 100 µM (inactive) | > 100 µM (inactive) | > 100 µM (inactive) | > 100 µM (inactive) | > 100 µM (inactive) | > 100 µM (inactive) | – | > 100 µM (inactive) | > 100 | > 100 µM (inactive) | > 100 µM (inactive) | > 100 µM (inactive) | 93.3 µM (inactive) | > 100 µM (inactive) | > 100 µM (inactive)
CC(=O)N1C=Cc2c(c(C)c3c([nH]c4ccccc43)c2C)C1 | 10.4 µM (inactive) | 13.8 µM (inactive) | 4.58 µM (inactive) | 2.4 µM (inactive) | 10.3 µM (inactive) | 2.51 µM (inactive) | 3.02 µM (inactive) | 7.53 µM (inactive) | 10.8 µM (inactive) | 14.7 µM (inactive) | 10.1 µM (inactive) | 2.1 | 16.3 µM (inactive) | 1.53 µM (inactive) | 2.41 µM (inactive) | – | 6.03 µM (inactive) | –
COc1ccccc1/C=C1/Sc2scc(CC(=O)Nc3ccccc3)[n+]2C1=O | 20.3 µM (inactive) | 16 µM (inactive) | 42 µM (inactive) | 20.4 µM (inactive) | 20.3 µM (inactive) | 35 µM (inactive) | 34 µM (inactive) | – | 25.2 µM (inactive) | – | 53 µM (inactive) | 26.6 | 22.6 µM (inactive) | 24.6 µM (inactive) | 28.6 µM (inactive) | 30.8 µM (inactive) | 31.8 µM (inactive) | 26.9 µM (inactive)
CCCCOC(=O)C(=O)C(CC(C(=O)Cc1ccccc1)c1ccccc1)C(=O)C=C(C)C (stereo not given) | > 100 µM (inactive) | > 100 µM (inactive) | > 100 µM (inactive) | > 100 µM (inactive) | > 100 µM (inactive) | > 100 µM (inactive) | > 100 µM (inactive) | – | > 100 µM (inactive) | – | > 100 µM (inactive) | > 100 | > 100 µM (inactive) | > 100 µM (inactive) | > 100 µM (inactive) | > 100 µM (inactive) | > 100 µM (inactive) | > 100 µM (inactive)
O=C(CN(C(=O)OC12CC3CC(CC(C3)C1)C2)C(=O)OC12CC3CC(CC(C3)C1)C2)Oc1ccc([N+](=O)[O-])cc1 | 59 µM (inactive) | 87.5 µM (inactive) | > 100 µM (inactive) | > 100 µM (inactive) | > 100 µM (inactive) | 56.6 µM (inactive) | > 100 µM (inactive) | 75 µM (inactive) | 52.4 µM (inactive) | – | > 100 µM (inactive) | > 100 | 42 µM (inactive) | > 100 µM (inactive) | > 100 µM (inactive) | > 100 µM (inactive) | > 100 µM (inactive) | > 100 µM (inactive)
CC1(C)CC2(C)CC1CC2O (stereo not given) | – | > 100 µM (inactive) | > 100 µM (inactive) | > 100 µM (inactive) | > 100 µM (inactive) | > 100 µM (inactive) | > 100 µM (inactive) | > 100 µM (inactive) | > 100 µM (inactive) | > 100 µM (inactive) | > 100 µM (inactive) | > 100 | > 100 µM (inactive) | > 100 µM (inactive) | > 100 µM (inactive) | > 100 µM (inactive) | > 100 µM (inactive) | > 100 µM (inactive)
